The text below walks through data of ChEMBL document CHEMBL1142804, “Design, synthesis, and evaluation of novelly substituted benzimidazole compounds as angiotensin II receptor antagonists” (Bioorg Med Chem Lett, 2005).

Format in all cases: functional
Test [1] in a line: Noncompetitive antagonism of Angiotensin II receptor in endothelium removed isolated rat aortic ring.
Test [2] in a line: Noncompetitive antagonism of Angiotensin II receptor in endothelium removed isolated rat aortic ring; (n = 5). The settings on record: read-out: pA2 (converted).
The nature of test [3]: Competitive antagonism of Angiotensin II receptor in endothelium removed isolated rat aortic ring; (n = 5). The settings on record: read-out: pA2 (converted).
Test [4] in a line: Competitive antagonism of Angiotensin II receptor in endothelium removed isolated rat aortic ring.

Each structure is given as a SMILES string.

For the compound `CCCc1nc2c([N+](=O)[O-])cccc2n1Cc1ccc(-c2ccccc2C(=O)O)cc1`, the pA10 in test [1] turned out to be 2.9. Moreover, in test [2], the Kb was 79.4 nM.
In the case of `CCCCc1nc2c([N+](=O)[O-])cccc2n1Cc1ccc(-c2ccccc2C(=O)O)cc1`, the pA10 in test [1] came to 1.8. Besides, in test [2], the Kb was 3.16 nM.
Regarding `CCCCc1nc2c(N)cccc2n1Cc1ccc(-c2ccccc2C(=O)O)cc1`, the Kb in test [3] was 15.8 nM. Also, the pA10 in test [4] stood at 6.9.
With `CCOCc1nc2c([N+](=O)[O-])cccc2n1Cc1ccc(-c2ccccc2C(=O)O)cc1`, in test [1], the pA10 was found to be 1.7. Besides, the Kb in test [2] was 50.1 nM.
In the same order, the values of `CCc1nc2c([N+](=O)[O-])cccc2n1Cc1ccc(-c2ccccc2C(=O)O)cc1` are 3.4 and 100 nM.
Consider `CCCCc1nc2ccccc2n1Cc1ccc(-c2ccccc2C(=O)O)cc1`, for which the Kb in test [3] is 355 nM. The compound further had a pA10 in test [4] of 5.81.
In the same order, the values of `CCOc1nc2cccc(C(=O)O)c2n1Cc1ccc(-c2ccccc2-c2nnn[nH]2)cc1` [CANDESARTAN] are 9.55 nM and 7.1.
For the compound `CCCCc1nc(Cl)c(CO)n1Cc1ccc(-c2ccccc2-c2nnn[nH]2)cc1` [LOSARTAN], in test [3], the Kb was 39.8 nM. The same compound had a pA10 in test [4] of 6.5.
